Consider 13 compounds from EP4818177A1, “TRICYCLIC DERIVATIVE INHIBITOR, AND PREPARATION METHOD AND USE THEREFOR” (Shanghai Hansoh Biomedical Co., Ltd., priority 2023, dated 2025).

Data set [1] deals with MTAP Knockout HCT116 cells. In words: Cell proliferation inhibition (CellTiter-Glo), MTAP knockout cells. It counts as cell-based. Conditions: for Selectivity: HCT116 versus MTAP Knockout HCT116; for IC50: Homo sapiens, HCT-116, MTAP Knockout HCT116 cells, 72-240 hours incubation, CellTiter-Glo. From the text: (§1) Test Example 2: Determination of the inhibitory effect of the compounds of the present invention on the proliferation activity of HCT116 and MTAP Knockout HCT116 cells.
(§2) 1. Experimental objective: to determine the inhibitory effect of the compound on the proliferation activity of HCT116 wild-type and HCT116 MTAP knockout cells. 2. Experimental instruments: Centrifuge (Eppendorf 5810R); microplate reader (BioTek Synergy H1 or PerkinElmer Envision); pipette (Eppendorf or Rainin). 3. Experimental reagents: HCT116 and MTAP Knockout HCT116 cells were purchased from Nanjing Cobioer; Cell Titer-Glo was purchased from Promega (Cat. No. G7573); McCoy' 5A was purchased from Gibco (Cat. No. 12330031); FBS was purchased from Gibco (Cat. No. 10091148); PBS was purchased from Gibco (Cat. No. 10010023); trypsin was purchased from Gibco (Cat. No. 25200056); cell culture plates were purchased from Corning (Cat. No. 3610). 4. Experimental methods: HCT116 and MTAP Knockout HCT116 cells were cultured in McCoy'5A medium containing 10% FBS until an appropriate cell density was reached. The cells were then collected and adjusted to a suitable concentration using complete medium. The cell suspension was seeded into a 96-well plate at 90 µL per well and allowed to adhere overnight in a 37°C, 5% CO2 incubator. Compound solutions of various concentrations were prepared using DMSO and culture medium, with a vehicle control set. The compound solutions were added to the 96-well plate at 10 µL per well, and the plate was incubated in a 37°C, 5% CO2 incubator for an additional 72-240 hours. After incubation, CellTiter-Glo solution was added, and the mixture was mixed uniformly by shaking, followed by incubation in the dark for 10 to 30 minutes. Luminescence was measured using a Synergy H1 or Envision microplate reader. 5. Experimental data processing method: The inhibition rate was calculated using the luminescence signal values, and the concentrations along with the inhibition rates were subjected to non-linear regression curve fitting using Graphpad Prism software to obtain the IC50 values.

Data set [2] is described as follows: Pharmacokinetics in rats (plasma) after oral administration. Conditions: male, SD, rat, 5 mg/kg.
Protocol: Test Example 4: Determination of the pharmacokinetics of the compounds of the present invention in rats (plasma) after oral administration.
Study objective: SD rats were used as test animals to study the pharmacokinetic behaviour of the following example compounds in rats (plasma) after oral administration at a dose of 5 mg/kg. […] Test scheme 2.1 Test drugs: Vehicle formula: 0.5% CMC-Na (1% Tween 80); the examples of the present invention, prepared in house. 2.2 Test animals: 3 SD rats per group, male, purchased from Shanghai Bikai Keyi Biotechnology Co., Ltd., with animal license number (SCXK (Shanghai) 2018-0006, No.20180006037467). 2.3 Administration: 3 SD rats per group, male, were fasted overnight and then respectively administered PO at a dose of 5 mg/kg and a volume of 10 mL/kg. 2.4 Sample collection: 0.2 mL of blood was collected from the jugular vein of rats before administration and at 0, 0.25, 0.5, 1, 2, 4, 6, 8 and 24 h after administration, and placed in EDTA-K2test tubes, and the test tubes were centrifuged at 6,000 rpm at 4°C for 6 min to separate the plasma, which was stored at -80°C. The animals were fed 4 h after administration. 2.5 Sample treatment • 1) 160 uL of acetonitrile was added to 40 uL of plasma sample for precipitation, and after mixing, the mixture was centrifuged at 3,500 × g for 5-20 minutes. • 2) 100 uL of the treated supernatant solution was taken for LC/MS/MS analysis to determine the concentration of the test compounds. 2.6 Liquid phase analysis • Liquid phase conditions: Shimadzu LC-20AD pump; • Mass spectrometry conditions: AB Sciex API 4000 mass spectrometer; • Chromatographic column: phenomenex Gemiu 5 um C18 50 × 4.6 mm; • Mobile phase: solution A: 0.1% formic acid in water, solution B: methanol; • flow rate: 1.0 mL/min; Elution time: 0-4.0 min, with eluents as follows:
Experimental results and analysis: The main pharmacokinetic parameters were calculated using WinNonlin 8.2.
The target in data set [3] is T1, PRMT5/MEP50-MTA protein complex (Homo sapiens, UniProt O14744).
T1 construct: purchased Viva Biotech
T1 sequence (O14744 whole entry): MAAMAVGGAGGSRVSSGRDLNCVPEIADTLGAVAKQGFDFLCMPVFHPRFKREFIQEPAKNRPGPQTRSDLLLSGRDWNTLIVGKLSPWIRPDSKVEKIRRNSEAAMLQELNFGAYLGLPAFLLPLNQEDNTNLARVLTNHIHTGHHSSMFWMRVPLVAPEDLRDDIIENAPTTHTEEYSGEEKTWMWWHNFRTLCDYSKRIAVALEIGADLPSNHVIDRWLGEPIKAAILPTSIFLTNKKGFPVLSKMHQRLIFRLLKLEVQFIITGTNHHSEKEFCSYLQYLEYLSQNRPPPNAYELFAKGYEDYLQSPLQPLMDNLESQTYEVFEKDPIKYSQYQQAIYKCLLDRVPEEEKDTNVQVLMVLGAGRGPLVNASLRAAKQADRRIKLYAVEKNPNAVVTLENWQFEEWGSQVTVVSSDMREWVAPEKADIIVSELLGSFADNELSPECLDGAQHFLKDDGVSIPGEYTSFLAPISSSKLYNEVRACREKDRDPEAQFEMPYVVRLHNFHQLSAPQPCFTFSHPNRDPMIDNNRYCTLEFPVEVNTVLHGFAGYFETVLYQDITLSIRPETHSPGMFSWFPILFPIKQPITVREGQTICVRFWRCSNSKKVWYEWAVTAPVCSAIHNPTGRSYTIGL
T1 sequence (Q9BQA1 whole entry partner): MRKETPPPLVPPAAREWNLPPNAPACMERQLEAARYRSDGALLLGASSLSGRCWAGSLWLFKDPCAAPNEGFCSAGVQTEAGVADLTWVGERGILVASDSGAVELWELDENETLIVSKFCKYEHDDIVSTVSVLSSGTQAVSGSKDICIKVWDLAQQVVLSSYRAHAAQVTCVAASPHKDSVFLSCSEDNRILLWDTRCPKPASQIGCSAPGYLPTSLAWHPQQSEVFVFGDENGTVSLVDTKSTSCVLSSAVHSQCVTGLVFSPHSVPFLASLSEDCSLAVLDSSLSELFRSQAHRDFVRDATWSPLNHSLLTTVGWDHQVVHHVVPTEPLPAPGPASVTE
In words: Thermal shift assay: change in melting temperature of the PRMT5/MEP50-MTA protein complex. It counts as binding. The following applies: compound 8 µM, PRMT5/MEP50 2 µM, MTA 2 µM; Tm minus DMSO vehicle control. From the text:
Test Example 1: Determination of the ability of the compounds of the present invention to improve the thermal stability (melting temperature) of the PRMT5/MEP50-MTA protein complex.
1. Experimental objective: The objective of this test example is to determine the ability of the compound to improve the thermal stability of the PRMT5/MEP50-MTA protein complex, resulting in an increase in the protein melting temperature. 2. Experimental instruments: Quantitative PCR instrument (Quantstudio6 Flex) was purchased from Life Technologies; pipettes were purchased from Eppendorf or Rainin. 3. Experimental reagents and consumables: PRMT5/MEP50 protein was prepared by Viva Biotech; HEPES was purchased from Thermo Fisher Scientific (Cat. No. 15630080); DTT was purchased from Sigma (Cat. No. 43816-10ml); sodium chloride was purchased from Invitrogen (Cat. No. AM9760G); Protein Thermal Shift™ Dye Kit was purchased from Thermo Fisher Scientific (Cat. No. 4461146); methylthioadenosine (MTA) was purchased from Sigma (Cat. No. D5011). 4. Experimental methods: In this experiment, the thermal shift method was used to measure the change in the melting temperature (Tm) of the PRMT5/MEP50-MTA protein complex before and after compound binding, thereby characterising the ability of the compound to improve the thermal stability of the PRMT5/MEP50-MTA protein complex. A solution containing 50 mM HEPES, 10 mM DTT, 2 µM MTA, SYPRO Orange and 250 mM NaCl was prepared as the experimental buffer. Human PRMT5/MEP50 protein was added to a final concentration of 2 µM, and the mixture was incubated at room temperature for 30 minutes. The above reaction mixture was aliquoted into 8-strip PCR tubes at 19.5 µL per tube. Then 0.5 µL of test compound or DMSO was added to each tube, providing a total reaction volume of 20 µL and a final compound concentration of 8 µM. 2.5% DMSO was set as the vehicle control. After incubation at room temperature for 10 minutes, the PCR tubes were placed in a PCR instrument, and the melt curve function was selected to measure the melting temperature of the PRMT5/MEP50-MTA protein complex in different treatment groups (heated from 25°C to 95°C, 0.03°C/s). 5. Experimental data processing method: The experimental data files from the PCR instrument were imported into the thermal shift software to obtain the melting temperature (Tm) for each treatment group.

A further data set concerns HCT116 wild-type cells. In words: Cell proliferation inhibition (CellTiter-Glo), wild-type cells. It counts as cell-based. Conditions: Homo sapiens, HCT-116, HCT116 wild-type cells, 72-240 hours incubation.
Source text: as §1, §2

As for `CNN(C(=O)c1cc2c(cn1)nc(N)c1cnn(C)c12)[C@@H]1COc2cc(S(F)(F)(F)(F)F)ccc21` (single isomer, unassigned) [Example 375-P1], in data set [1], the Selectivity is recorded as 17 and the concentration for half-maximal inhibition (IC50) was determined as 7.9 nM. Moreover, in data set [2], the total exposure AUC(0-inf) turned out to be 2130 ng·h/mL, the peak level (Cmax) was 287 ng/mL, the MRT inf is 5 h and the time of peak concentration (Tmax) stood at 1.3 h. Besides, the half-life in data set [2] was 3.3 h. Further, the ΔTm at 8 µM in data set [3] came out at 13 °C. In addition, in the data set with HCT116 wild-type cells, the concentration for half-maximal inhibition (IC50) came to 133 nM.
For the compound `[2H]C([2H])([2H])NN(C(=O)c1cc2c3c(c(N)nc2cn1)COC3)[C@H]1COCc2c1ccn1c(C(F)(F)F)cnc21` (stereo in doubt) [Example 371-P1, (R)-4-amino-N'-(methyl-d3)-N-(3-(trifluoromethyl)-7,10-dihydro-8H-imidazo[1,2-a]pyrano[3,4-c]pyridin-7-yl)-1,3-dihydrofuro[3,4-c][1,7]naphthyridine-8-carbohydrazide], in data set [1], the Selectivity is 121 and the IC50 was 8.5 nM. For the same compound, in data set [2], the AUC(0-inf) turned out to be 4800 ng·h/mL, the highest level (Cmax) was 1600 ng/mL, the MRT inf is 2.5 h and the Tmax is 0.8 h. Further, the half-life in data set [2] is 1.6 h. Moreover, the shift in melting temperature (ΔTm) at 8 µM in data set [3] was determined as 11.6 °C. In addition, the IC50 in the data set with HCT116 wild-type cells stood at 1040 nM.
As for `Cc1cc2nc(N)c3cncn3c2cc1C(=O)N(C)C1COCc2c1ccn1c(C(F)(F)F)cnc21` (stereo not drawn) [Example 62, 4-Amino-N,7-dimethyl-N-(3-(trifluoromethyl)-7,10-dihydro-8H-imidazo[1,2-a]pyrano[3,4-c]pyridin-7-yl)imidazo[1,5-a]quinoxaline-8-carboxamide], in data set [1], the Selectivity came out at 113 and the IC50 was found to be 7.2 nM. For the same compound, the ΔTm at 8 µM in data set [3] worked out at 12.5 °C. Besides, the concentration for half-maximal inhibition (IC50) in the data set on HCT116 wild-type cells was determined as 808 nM.
The corresponding values for `CN(C(=O)c1ccc2nc(N)c3cnn(C)c3c2c1)C1COCc2c1ccn1c(C(F)(F)F)cnc21` (stereo not drawn) [Example 83, 4-Amino-N,1-dimethyl-N-(3-(trifluoromethyl)-7,10-dihydro-8H-imidazo[1,2-a]pyrano[3,4-c]pyridin-7-yl)-1H-pyrazolo[4,3-c]quinoline-8-carboxamide] are 164, 4.8 nM, 11.8 °C and 790 nM.
In the case of `CCNN(C(=O)c1cc2c(cc1C)nc(N)c1cncn12)C1COCc2nc(C(F)(F)F)ccc21` (stereo not drawn) [Example 277, 4-Amino-N'-ethyl-7-methyl-N-(2-(trifluoromethyl)-5,8-dihydro-6H-pyrano[3,4-b]pyridin-5-yl)imidazo[1,5-a]quinoxaline-8-carbohydrazide], in data set [1], the Selectivity came to 17 and the IC50 came out at 12 nM. In data set [3], the thermal shift (ΔTm) at 8 µM amounted to 12.9 °C. The concentration for half-maximal inhibition (IC50) in the data set on HCT116 wild-type cells came to 207 nM.
For `CNN(C(=O)c1cc2c(cc1F)nc(N)c1cncn12)C1COCc2c1ccn1c(C(F)(F)F)cnc21` (stereo not drawn) [Example 282, 4-Amino-7-fluoro-N'-methyl-N-(3-(trifluoromethyl)-7,10-dihydro-8H-imidazo[1,2-a]pyrano[3,4-c]pyridin-7-yl)imidazo[1,5-a]quinoxaline-8-carbohydrazide] the same measures were 145, 17 nM, 12.3 °C and 2450 nM.
Take `CNN(C(=O)c1cc2c3c(c(N)nc2cn1)COC3)[C@@H]1COCc2c1ccn1c(C(F)(F)F)cnc21` [Example 285, 4-Amino-N'-methyl-N-(3-(trifluoromethyl)-7,10-dihydro-8H-imidazo[1,2-a]pyrano[3,4-c]pyridin-7-yl)-1,3-dihydrofuro[3,4-c][1,7]diazanaphthalene-8-carbohydrazide]: in data set [1], the Selectivity stood at 120 and the half-inhibitory concentration (IC50) came out at 10 nM. For the same compound, in data set [2], the AUC(0-inf) was found to be 4980 ng·h/mL, the concentration peaked (Cmax) at 999 ng/mL, the MRT inf was found to be 4.8 h and the time to peak (Tmax) is 0.8 h. Also, in data set [2], the half-life was 4.2 h. Moreover, the ΔTm at 8 µM in data set [3] is 11.6 °C. In addition, the IC50 in the data set on HCT116 wild-type cells stood at 1150 nM.
For `CNN(C(=O)c1cc2c3c(c(N)nc2cc1C)COC3)C1COCc2nc(C(F)(F)F)ccc21` (stereo not drawn) [Example 307, 4-Amino-7-methyl-N'-methyl-N-(2-trifluoromethyl-5,8-dihydro-6H-pyrano[3,4-b]pyridin-5-yl)-1,3-dihydrofuro[3,4-c]quinoline-8-carbohydrazide], in data set [1], the Selectivity was found to be 73. Besides, the IC50 was 15 nM in data set [1] and 1060 nM in the data set on HCT116 wild-type cells. For the same compound, in data set [3], the ΔTm at 8 µM was 12.7 °C.
As for `[2H]C([2H])([2H])NN(C(=O)c1ccc2nc(N)c3cnn(C)c3c2c1)[C@@H]1COCc2nc(C(F)(F)F)ccc21` [Example 317], in data set [1], the Selectivity amounted to 130 and the IC50 amounted to 3.9 nM. Moreover, in data set [2], the AUC(0-inf) was 739 ng·h/mL, the peak level (Cmax) was 240 ng/mL, the mean residence time (MRT inf) came to 2.8 h and the time to peak (Tmax) was found to be 1 h. Besides, the half-life in data set [2] was 1.9 h. For the same compound, the ΔTm at 8 µM in data set [3] turned out to be 11.6 °C. For the same compound, the IC50 with HCT116 wild-type cells was 508 nM.
Take `[2H]C([2H])([2H])NN(C(=O)c1ccc2nc(N)c3cnn(C)c3c2c1)C1([2H])COCc2nc(C(F)(F)F)ccc21` (stereo not drawn) [Example 324, 4-Amino-N-[5-deuterio-2-(trifluoromethyl)-6,8-dihydropyrano[3,4-b]pyridin-5-yl]-1-methyl-N'-(trideuteriomethyl)pyrazolo[4,3-c]quinoline-8-hydrazide]: in data set [1], the Selectivity came out at 155 and the IC50 amounted to 15 nM. In addition, the ΔTm at 8 µM in data set [3] was 11.1 °C. The IC50 with HCT116 wild-type cells was 2380 nM.
Take `[2H]C([2H])([2H])NN(C(=O)c1cc2c3c(c(N)nc2cn1)COC3)[C@@]1([2H])COCc2c1ccn1c(C(F)(F)F)cnc21` [Example 354-P1, (R)-4-amino-N'-(methyl-d3)-N-(3-(trifluoromethyl)-7,10-dihydro-8H-imidazo[1,2-a]pyrano[3,4-c]pyridin-7-yl-7-d)-1,3-dihydrofuro[3,4-c][1,7]naphthyridine-8-carbohydrazide]: the Selectivity in data set [1] worked out at 107. Moreover, the IC50 in data set [1] is 23 nM; with HCT116 wild-type cells it was 2470 nM. In data set [3], the ΔTm at 8 µM was 11.6 °C.
For `CNN(C(=O)c1ccc2nc(N)c3cnn(C)c3c2c1)C1COCc2nc(S(F)(F)(F)(F)F)ccc21` (stereo not drawn) [Example 448] the same measures were 44, 7.8 nM, 344 nM and 12.3 °C.
`CNN(C(=O)c1cc2c(cc1C)nc(N)c1cnn(C)c12)C1COc2cc(S(F)(F)(F)(F)F)ccc21` (stereo not drawn) [Example 451, 4-Amino-N',1,7-trimethyl-N-(6-(pentafluorosulphanyl)-2,3-dihydrobenzofuran-3-yl)-1H-pyrazolo[4,3-c]quinoline-8carbohydrazide]: in data set [1], the Selectivity turned out to be 21 and the IC50 came to 4.2 nM. The ΔTm at 8 µM in data set [3] was determined as 13.7 °C. In addition, in the data set with HCT116 wild-type cells, the IC50 was 89 nM.
